Assay results: US9199963B2, “Heterocyclic compound” (Takeda Pharmaceutical Company Limited, priority 2013, dated 2015)

Legend:
[1] = molecular target: T1, human MCH receptor 1 (MCHR1) (Homo sapiens, UniProt Q99705); assay: Human MCH receptor 1 (MCHR1) competitive inhibitory activity using binding assay; details: test compound 0.1 μM; [125I]-MCH (4-19); human MCHR1-expressing CHO cellular membrane fraction; read-out: Binding inhibition rate % (0.1 μM)
T1 construct: expressed in transfected cells; host or cells: CHO cell clone 57 (described in WO01/82925); membrane fraction
T1 sequence (Q99705 whole entry): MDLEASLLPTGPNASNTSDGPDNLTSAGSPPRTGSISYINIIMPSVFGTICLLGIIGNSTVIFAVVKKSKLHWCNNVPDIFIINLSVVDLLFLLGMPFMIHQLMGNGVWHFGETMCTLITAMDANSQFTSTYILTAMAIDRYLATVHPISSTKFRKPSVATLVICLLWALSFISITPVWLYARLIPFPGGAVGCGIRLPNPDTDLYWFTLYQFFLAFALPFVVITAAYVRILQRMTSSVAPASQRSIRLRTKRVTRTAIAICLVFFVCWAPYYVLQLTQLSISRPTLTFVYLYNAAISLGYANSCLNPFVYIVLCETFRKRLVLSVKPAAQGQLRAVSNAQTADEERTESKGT
Procedure: Determination of Human MCH Receptor 1 (MCHR1) Competitive Inhibitory Activity of Test Compound Using Binding Assay
1. Preparation of Membrane Fraction
In phosphate buffered saline (pH 7.4) supplemented with 5 mM EDTA (ethylenediaminetetraacetic acid) were respectively suspended human MCHR1-expressing CHO cells (1×10^8 cells) and centrifuged. Homogenate buffer (10 mL, 10 mM NaHCO3, 5 mM EDTA, pH 7.5, 0.5 mM PMSF (phenylmethylsulfonyl fluoride), 20 mg/L leupeptin, 4 mg/L E-64, 1 mg/L pepstatin A) was added to the pellets of the cells and, using Polytron Homogenizer, the mixture was homogenated. The supernatant obtained after centrifugation at 400×g for 10 min was further centrifuged at 100,000×g for 1 hr to give precipitate of the membrane fraction. The precipitate was suspended in 2 mL of assay buffer [20 mM Tris-HCl (pH 7.5), 5 mM EDTA, 0.5 mM PMSF, 20 mg/L leupeptin, 4 mg/L E-64, 1 mg/L pepstatin A]. The membrane fractions were suspended in assay buffer to a protein concentration of 2 mg/mL, and after dispensing, preserved at −80° C. and used upon thawing each time when in use.
The MCHR1 ligand binding inhibitory activity of the test compound was determined as follows.
The mixture was reacted with stirring at room temperature for 1 hr, and the plate was set on FilterMate Harvester (PerkinElmer). […] The glass filter plate was dried, MicroScint 0 (PerkinElmer) was added at 25 μL/well, and the resulting radioactivity was measured by TopCount liquid scintillation counter (PerkinElmer). The binding inhibition rate of the test compound was calculated by the following formula. Binding inhibition(%)=100−(radioactivity upon addition of test compound and hot MCH−radioactivity upon addition of cold MCH and hot MCH solution)/(radioactivity upon addition of DMSO solution and hot MCH−radioactivity upon addition of cold MCH and hot MCH solution)×100

human MCHR1 = molecular target: T2, human MCHR1 (Homo sapiens, UniProt Q99705); assay: MCH receptor 1 antagonistic activity using Ca2+ mobilization assay; assay type: cell-based; details: test compound 0.1 μM; ligand MCH (4-19) 2 nM; human MCHR1-expressing CHO cells (clone #4); read-out: Inhibition rate % (0.1 μM)
T2 construct: expressed in transfected cells; host or cells: CHO dhfr- cells, clone #4
T2 sequence (Q99705 whole entry): as above
Procedure: Measurement of MCH Receptor 1 Antagonistic Activity of Test Compound Using Ca^2+ Mobilization Assay
Using an expression vector plasmid introduced with human MCHR1 gene for expression in animal cells, human MCHR1 gene was introduced into CHO cells (CHO dhfr^−) by Lipofectamine LTX (Invitrogen). The cells were cultured in selection MEMα medium [445 mL of MEMα medium without nucleic acid and added with 5 mL of Penicillin-Streptomycin (Invitrogen) and 50 mL of dialyzed fetal bovine serum]. Colony 24 clones grown in the selection medium, which were human MCHR1 gene-expressing CHO cell candidates, were selected. […] An integrated dispensing function fluorometer (CellLux, PerkinElmer) was used for Ca^2+ mobilization assay. […] The medium was removed, and the cells were washed with phosphate buffered saline (PBS). A Ca^2+ indicator dye reagent (DOJINDO LABORATORIES, Ca screening no-wash kit Fluo4) was added at 100 μL/well, and the dye was allowed to penetrate into the cells for 30 min in an incubator at 5% CO2, 37° C. The plate was set on a plate reader. First, a test compound solution diluted with an assay buffer [10 mM HEPES (pH 7.4), 1× assay buffer containing 0.1% BSA (DOJINDO LABORATORIES, attached to Ca screening no-wash kit Fluo4)] or DMSO solution was added at 50 μL/well, and then ligand MCH (4-19) peptide (final concentration 2 nM) diluted with assay buffer or DMSO was added at 50 μL/well, during which changes in intracellular fluorescence were measured at 2 second intervals.

| SMILES | inhibition at 0.1 µM [1] | inhibition at 0.1 µM (human MCHR1) |
| --- | --- | --- |
| Cc1c2cc(-n3ccc(OCc4ccccc4)cc3=O)ccc2nn1C [Example 9, 4-(benzyloxy)-1-(2,3-dimethyl-2H-indazol-5-yl)pyridin-2(1H)-one] | 36% |  |
| Cc1c2cc(-n3ccc(OCc4ccccc4)cc3=O)ccc2nn1C1CC1 [Example 7, 4-(benzyloxy)-1-(2-cyclopropyl-3-methyl-2H-indazol-5-yl)pyridin-2(1H)-one] | 44% | 66% |
| Cc1c2cc(-n3ccc(OCc4cc(C(F)(F)F)cs4)cc3=O)ccc2nn1C [Example 41, 1-(2,3-dimethyl-2H-indazol-5-yl)-4-{[4-(trifluoromethyl)thiophen-2-yl]methoxy}pyridin-2(1H)-one] | 55% | 70% |
| Cc1c2cc(-n3ccc(OCc4ccc(Br)cn4)cc3=O)ccc2nn1C1CC1 [Example 28, 4-[(5-bromopyridin-2-yl)methoxy]-1-(2-cyclopropyl-3-methyl-2H-indazol-5-yl)pyridin-2(1H)-one] | 68% | 93% |
| CCn1nc2ccc(-n3ccc(OCc4ccc(Cl)cc4)cc3=O)cc2c1C [Example 2, 4-[(4-chlorobenzyl)oxy]-1-(2-ethyl-3-methyl-2H-indazol-5-yl)pyridin-2(1H)-one] | 43% | 73% |
| Cc1c2cc(-n3ccc(OCc4ccc(Cl)s4)cc3=O)ccc2nn1C1CC1 [Example 8, 4-[(5-chlorothiophen-2-yl)methoxy]-1-(2-cyclopropyl-3-methyl-2H-indazol-5-yl)pyridin-2(1H)-one] | 68% | 55% |
| Cc1c2cc(-n3ccc(OCc4ccc(C(F)(F)F)s4)cc3=O)ccc2nn1C [Example 10, 1-(2,3-dimethyl-2H-indazol-5-yl)-4-{[5-(trifluoromethyl)thiophen-2-yl]methoxy}pyridin-2(1H)-one] | 39% | 51% |
| Cc1c2cc(-n3ccc(OCc4nc(Br)cs4)cc3=O)ccc2nn1C [Example 30, 4-[(4-bromo-1,3-thiazol-2-yl)methoxy]-1-(2,3-dimethyl-2H-indazol-5-yl)pyridin-2(1H)-one] | 34% | 89% |
| Cc1c2cc(-n3ccc(OCc4nc(C(F)(F)F)cs4)cc3=O)ccc2nn1C1CC1 [Example 33, 1-(2-cyclopropyl-3-methyl-2H-indazol-5-yl)-4-{[4-(trifluoromethyl)-1,3-thiazol-2-yl]methoxy}pyridin-2(1H)-one] | 76% | 96% |
| Cc1c2cc(-n3ccc(OCc4ccc(F)cc4)cc3=O)ccc2nn1C [Example 42, 1-(2,3-dimethyl-2H-indazol-5-yl)-4-[(4-fluorobenzyl)oxy]pyridin-2(1H)-one] | 46% | 65% |
| Cc1c2cc(-n3ccc(OCc4cccc(Cl)c4)cc3=O)ccc2nn1C [Example 12, 4-[(3-chlorobenzyl)oxy]-1-(2,3-dimethyl-2H-indazol-5-yl)pyridin-2(1H)-one] | 42% | 38% |
| Cc1c2cc(-n3ccc(OCc4cc(C(F)(F)F)cs4)cc3=O)ccc2nn1C1CC1 [Example 43, 1-(2-cyclopropyl-3-methyl-2H-indazol-5-yl)-4-{[4-(trifluoromethyl)thiophen-2-yl]methoxy}pyridin-2(1H)-one] | 71% | 72% |
| CCn1nc2ccc(-n3ccc(OCc4nc(C(F)(F)F)cs4)cc3=O)cc2c1C [Example 36, 1-(2-ethyl-3-methyl-2H-indazol-5-yl)-4-{[4-(trifluoromethyl)-1,3-thiazol-2-yl]methoxy}pyridin-2(1H)-one] | 37% | 83% |
| CCCn1nc2ccc(-n3ccc(OCc4ccc(Cl)cc4)cc3=O)cc2c1C [Example 3, 4-[(4-chlorobenzyl)oxy]-1-(3-methyl-2-propyl-2H-indazol-5-yl)pyridin-2(1H)-one] | 37% |  |
| Cc1c2cc(-n3ccc(OCc4cc5ccccc5o4)cc3=O)ccc2nn1C [Example 16, 4-(1-benzofuran-2-ylmethoxy)-1-(2,3-dimethyl-2H-indazol-5-yl)pyridin-2(1H)-one] | 47% | 57% |
| Cc1c2cc(-n3ccc(OCc4ccc(C(F)(F)F)s4)cc3=O)ccc2nn1C1CC1 [Example 45, 1-(2-cyclopropyl-3-methyl-2H-indazol-5-yl)-4-{[5-(trifluoromethyl)thiophen-2-yl]methoxy}pyridin-2(1H)-one] | 49% | 43% |
| Cc1c2cc(-n3ccc(OCc4ccc(Cl)cn4)cc3=O)ccc2nn1C1CC1 [Example 18, 4-[(5-chloropyridin-2-yl)methoxy]-1-(2-cyclopropyl-3-methyl-2H-indazol-5-yl)pyridin-2(1H)-one] | 45% | 63% |
| Cc1c2cc(-n3ccc(OCc4csc(C(F)(F)F)n4)cc3=O)ccc2nn1C [Example 39, 1-(2,3-dimethyl-2H-indazol-5-yl)-4-{[2-(trifluoromethyl)-1,3-thiazol-4-yl]methoxy}pyridin-2(1H)-one] | 33% | 71% |
| Cc1c2cc(-n3ccc(OCc4nc(C(F)(F)F)cs4)cc3=O)ccc2nn1C [Example 38, 1-(2,3-dimethyl-2H-indazol-5-yl)-4-{[4-(trifluoromethyl)-1,3-thiazol-2-yl]methoxy}pyridin-2(1H)-one] | 45% | 78% |
| Cc1c2cc(-n3ccc(OCc4ccc(Br)s4)cc3=O)ccc2nn1C [Example 27, 4-[(5-bromothiophen-2-yl)methoxy]-1-(2,3-dimethyl-2H-indazol-5-yl)pyridin-2(1H)-one] | 60% | 92% |
| Cc1c2c(F)c(-n3ccc(OCc4ccc(Cl)cc4)cc3=O)ccc2nn1C [Example 32, 4-[(4-chlorobenzyl)oxy]-1-(4-fluoro-2,3-dimethyl-2H-indazol-5-yl)pyridin-2(1H)-one] | 54% |  |
| Cc1c2cc(-n3ccc(OCc4ccc(Cl)cc4)cc3=O)ccc2nn1C1CC1 [Example 5, 4-[(4-chlorobenzyl)oxy]-1-(2-cyclopropyl-3-methyl-2H-indazol-5-yl)pyridin-2(1H)-one] | 78% | 86% |
| Cc1c2cc(-n3ccc(OCc4ccc(Br)cn4)cc3=O)ccc2nn1C [Example 23, 4-[(5-bromopyridin-2-yl)methoxy]-1-(2,3-dimethyl-2H-indazol-5-yl)pyridin-2(1H)-one] | 57% | 77% |
